PMC10141076, “Steroids and Fatty Acid Esters from Cyperus sexangularis Leaf and Their Antioxidant, Anti-Inflammatory and Anti-Elastase Properties” (Molecules, 2023)
“And” between values parts separate entries of the source, which are not always exact repeats. Equal values may be shown once. Marks after values point to notes of the source that are not given here.

How the values were obtained:
[1] = DPPH spectrophotometric assay (radical scavenging); conditions: mean ± SEM, n = 3; 30 min, 37 °C, 515 nm
Method: This was performed by following a previously reported conventional method, with some modifications. Here, 0.5 mL of 0.1Mm DPPH radical in methanol was added to 0.5 mL of serially diluted CS-isolated compounds and L-ascorbic acid at 100.00, 50.00, 25.00, 12.50 and 6.25 µg/mL concentration range in triplicate. The reaction mixture was incubated in the dark at 37 °C for 30 min. The absorbance was measured at 515 nm on a microplate reader. The percentage inhibition of the radical was calculated thus: % DPPH inhibition=(ABScontrol−ABSsample/ABScontrol)×100 where ABSsample = Absorbance of test sample, while ABScontrol = Absorbance of negative control (2% DMSO).

[2] = Nitric oxide (NO) inhibition assay (sodium nitroprusside/Griess); conditions: mean ± SEM, n = 3; 540 nm
Method: The inhibitory effect of the isolated compounds against the NO radical was investigated using the method described by Jimoh et al.. The compounds were prepared in varying concentrations from 100.00–6.25 µg/mL. They were added to 0.2 Mm (2 mL) of sodium nitroprusside in triplicates.

[3] = test system: egg albumin; test: In vitro anti-inflammatory test: egg albumin denaturation (EAD) assay; assay type: biochemical, chicken
Method: The test was carried out using the egg albumin denaturation assay method reported by Chatterjee et al.. […] The mixture was incubated at 37 °C for 15 min away from direct light and thereafter boiled at 70 °C for 5 min in a thermostatic water bath. The resulting mixture was cooled, and the absorbance was measured at 655 nm on a microplate reader.

[4] = target: T1, porcine pancreatic elastase (PPE) (Sus scrofa, UniProt P00772); test: Anti-elastase assay (release of p-nitroaniline from N-succinyl-ala-ala-ala-p-nitroanilide); assay type: biochemical; conditions: n = 3; text says elastase in HaCaT cells, method uses PPE; read-out: Anti-Elastase Activity (IC50 ± SD) (converted)
T1 construct: purchased Sigma
Method: All reagents, solvents, silica gel for TLC and silica gel for column chromatography were purchased from Sigma-Aldrich (Pty) Ltd. (Johannesburg, South Africa) and Merck (Pty) Ltd. (Johannesburg, South Africa) through a licenced local supplier, Shalom Laboratories and Supplies, South Africa. Antioxidant absorbance were measured on a 680-Bio-Rad Microplate Reader (Serial Number 14966, Irvine, CA, USA), while the anti-elastase activity was monitored on a Perkin Elmer VICTOR Nivo microplate reader ([…]). Isolated compounds were analyzed with a 600 MHz Bruker Biospin GmbH spectrometer (Bruker, Rheinstetten, Germany) and a 400 MHz VARIAN NMR spectrometer (Agilent Technologies Inc., Santa Clara, CA, USA). Chemical shift (δ) was recorded in part per million (ppm). The spectrum range was set at 0–14 ppm for 1H NMR, while that of ^13C NMR was set at 0–220 ppm. Tetramethyl silane was used as the internal standard and compounds were read in deuterated chloroform and benzene, as well as benzene-d6 in trifluorotoluene (TFT). High-resolution mass spectrometry (HRMS) was performed with a Waters API Q-TOF Ultima spectrometer (Waters Corporation, Manchester, UK) situated in Stellenbosch University, Stellenbosch, South Africa. […]
The ability of each isolated compound to inhibit porcine pancreatic elastase (PPE) (Sigma) was determined by measuring the release of p-nitroaniline from N-succinyl-ala-ala-ala-p-nitroanilide spectrophotometrically at 405nm according to the method of Bieth et al. and modified according to the method of Fibrich et al.. The reaction mixture contained 100mM Tris buffer (pH 8.0), 0.5M HCl; the test sample was serially diluted in DMSO to yield seven concentrations ([…]) to which PPE ([…]) was added and incubated for 15 min, followed by the addition of N-succinyl-ala-ala-ala-p-nitroanilide (4mM). The change in the absorbance of the reaction mixture was measured for 15 min, from which the rate was obtained. One unit of elastastolytic activity is defined as the release of 1 µM of p-nitroaniline/min. Ursolic acid was included as the positive drug control, as well as a vehicle control containing 2% DMSO and two negative controls (one in which no enzyme was added and the other in which no substrate was added). An IC50, or concentration at which 50% of the enzyme activity is inhibited was calculated using GraphPad Prism 4 (GraphPad Software, San Diego, CA, USA).

[5] = Ferric reducing antioxidant power (FRAP) assay; conditions: ascorbic acid equivalent; mean ± SEM, n = 3; 700 nm
Method: The reducing antioxidant capacity of each isolated compound was evaluated according to the method of Kumar and Pandey, with some modifications. The compounds were dissolved in 2% DMSO and added to the mixture containing 0.25 mL of phosphate buffer (0.2 M; pH 6.6) and 0.25 mL of potassium ferricyanide [K3Fe(CN)6] (1% w/v). Standard compounds used were L (+)-Ascorbic acid. The resulting mixture was incubated at 50 °C for 20 min, followed by the addition of 0.25 mL of CCl3COOH (10% w/v) and then centrifuged at 3000 rpm for 10 min. The upper layer of the solution was mixed with 1 mL of 2% DMSO and the same amount and 0.5 mL of FeCl3 (0.1%, w/v). The experiment was conducted in triplicate, and absorbance was measured at 700 nm on a microplate reader against a blank sample of only phosphate buffer. Thus, the ferric reducing power of the isolated compounds at 100.00, 50.00, 25.00, 12.50 and 6.25 µg/mL concentration in methanol were determined as ascorbic acid equivalent (AAE) from the calibration curve of the positive control (L-ascorbic acid).

T1 sequence (P00772 27-266): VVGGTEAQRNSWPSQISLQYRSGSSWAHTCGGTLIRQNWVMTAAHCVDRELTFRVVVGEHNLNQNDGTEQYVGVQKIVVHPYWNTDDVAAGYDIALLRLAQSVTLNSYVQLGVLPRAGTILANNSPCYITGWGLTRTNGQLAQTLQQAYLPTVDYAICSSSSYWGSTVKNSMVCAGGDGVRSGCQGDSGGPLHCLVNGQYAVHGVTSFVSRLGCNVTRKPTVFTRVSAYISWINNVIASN

| SMILES | DPPH (IC50 ± SEM) [1] | NO (IC50 ± SEM) [2] | IC50 [4] [µM] | FRAP [5] | other results |
| --- | --- | --- | --- | --- | --- |
| O=C1O[C@H]([C@@H](O)CO)C(O)=C1O [ASC, L-ascorbic acid, reference compound] | 8.92 ± 1.26 ^a µg/mL | 21.89 ± 1.32 ^a µg/mL |  |  |  |
| CC[C@H](C=C[C@@H](C)[C@H]1CC[C@H]2[C@@H]3CC=C4CC(O)CC[C@]4(C)[C@H]3CC[C@]12C)C(C)C (stereo partly shown) [Compound 1, stigmasta-5,22-dien-3-ol] | 38.18 ± 2.30 ^bc µg/mL | 68.56 ± 4.03 ^bc µg/mL | > 121 | 303.58 ± 10.33 µgAAE/mg and 303.58 ± 10.33 ^c µgAAE/mg | inhibition of egg albumin denaturation ([3]; at 6.25 µg/mL (lowest concentration)): 51.03 ± 10.36%; inhibition of egg albumin denaturation ([3]; at 6.25 µg/mL (lowest concentration), listed as stigmasterol): 50%; inhibition of egg albumin denaturation ([3]; at 25 µg/mL (median concentration)): up to 70% |
| C=CC(C)C1CCC2C1CCC1C3CCCCC3CCC12 (stereo not shown) [Compound 2, 17-(1-methyl-allyl)-hexadecahydro-cyclopenta[a] phenanthrene] | 57.63 ± 1.62 ^e µg/mL | 105.73 ± 7.48 ^d µg/mL | > 349 | 196.21 ± 13.79 ^a µgAAE/mg | inhibition of egg albumin denaturation, rank in words ([3]; across all concentrations (100–6.25 µg/mL), p < 0.05): least active among all the compounds tested |
| CC[C@H](CC[C@@H](C)[C@H]1CC[C@H]2[C@@H]3CC=C4C[C@@H](O)CC[C@]4(C)[C@H]3CC[C@]12C)C(C)C [Compound 3, β-sitosterol] |  |  | > 121 |  |  |
| CCCCCCCCCCCC(=O)O [Compound 4, dodecanoic acid] | 35.99 ± 2.13 ^b µg/mL | 65.04 ± 3.20 ^b µg/mL | > 250 | 245.94 ± 22.81 ^b µgAAE/mg |  |
| CCCCCCCCCCCCCCCCCCC(=O)OCC [Compound 5, ethyl nonadecanoate] | 43.82 ± 1.44 ^c µg/mL | 69.74 ± 3.06 ^bc µg/mL | ≥ 153 | 243.40 ± 19.72 ^b µgAAE/mg |  |
| CCCCCCCCCCCCCCCCCC(=O)OCC [Compound 6, ethyl stearate] | 49.86 ± 2.29 ^d µg/mL | 95.99 ± 4.93 ^d µg/mL | ≥ 160 | 190.92 ± 11.68 ^a µgAAE/mg | inhibition of egg albumin denaturation, rank in words ([3]; at concentrations above 6.25 µg/mL): least activity among the fatty acid compounds |
| C[C@H]1[C@H](C)CC[C@]2(C(=O)O)CC[C@]3(C)C(=CC[C@@H]4[C@@]5(C)CC[C@H](O)C(C)(C)[C@@H]5CC[C@]43C)[C@H]12 [Ursolic acid, ursolic acid, reference compound] |  |  | 54.3 |  |  |
| CCCCCCCCCCCCCCCCCCC(=O)OCC [ethyl nonadecanoate] |  |  | > 153 |  |  |
| CCCCCCCCCCCCCCCCCC(=O)OCC [ethyl stearate] |  |  | > 160 |  |  |
